Like-named read-outs stand apart in the source and are kept apart here.
What was measured:
[1] = target: T1, HCV NS5B polymerase 1a-H77 (Hepatitis C virus genotype 1a, UniProt P27958); test: biochemical; design: species or system HCV genotype 1a; details: enzyme, strain 1a H77; read-out: HCV Polymerase Strain 1a H77 IC50
T1 construct: six-histidine tag; made in house; host or cells: E. coli
Method in brief: (§1)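 Incorporation of [3H]UTP (0.284 μM), alongside 20 μM each CTP and ATP, into RNA copied from a 5 nM 2.1 kb genotype 1b negative-strand template was measured after 3 h at 30° C using purified His-tagged NS5B truncated at residue 570. Product was spermine-precipitated, filtered and scintillation-counted; nonlinear regression gave IC50.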

[2] = target: T2, HCV NS5B polymerase 1a-H77-C316Y (Hepatitis C virus genotype 1a, UniProt P27958, C2736Y); test: biochemical; design: species or system HCV genotype 1a
T2 construct: six-histidine tag; made in house; host or cells: E. coli
T2 sequence (P27958 2421-2990 C2736Y): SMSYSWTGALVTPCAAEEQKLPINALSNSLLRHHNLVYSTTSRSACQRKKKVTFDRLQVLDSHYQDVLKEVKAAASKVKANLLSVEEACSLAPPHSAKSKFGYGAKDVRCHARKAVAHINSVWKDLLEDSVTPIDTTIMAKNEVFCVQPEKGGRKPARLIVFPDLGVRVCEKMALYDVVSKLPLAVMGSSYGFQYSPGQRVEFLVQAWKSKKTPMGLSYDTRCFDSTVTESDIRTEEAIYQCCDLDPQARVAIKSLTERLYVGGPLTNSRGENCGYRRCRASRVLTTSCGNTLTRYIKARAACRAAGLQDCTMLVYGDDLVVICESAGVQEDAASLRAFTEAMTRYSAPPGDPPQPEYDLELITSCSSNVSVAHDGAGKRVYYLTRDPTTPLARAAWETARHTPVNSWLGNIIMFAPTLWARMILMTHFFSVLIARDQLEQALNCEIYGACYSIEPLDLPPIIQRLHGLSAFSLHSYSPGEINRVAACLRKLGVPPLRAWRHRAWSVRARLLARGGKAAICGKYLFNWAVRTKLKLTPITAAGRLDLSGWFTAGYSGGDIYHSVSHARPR
Method in brief: as §1

[3] = tested on: HCV NS5B polymerase 1a-H77-C316Y; test: biochemical; design: species or system HCV genotype 1a; details: ratio of enzyme IC50s, 1a H77-C316Y / 1a H77
Method in brief: as §1

[4] = target: T3, HCV NS5B polymerase 1b BK strain (Hepatitis C virus genotype 1b, UniProt P26663); test: HCV NS5B polymerase enzymatic inhibition assay, strain 1b BK; assay type: biochemical; details: enzyme, strain 1b BK; read-out: HCV Polymerase Strain 1b BK IC50
T3 construct: six-histidine tag; made in house; host or cells: E. coli
T3 sequence (P26663 2420-2989): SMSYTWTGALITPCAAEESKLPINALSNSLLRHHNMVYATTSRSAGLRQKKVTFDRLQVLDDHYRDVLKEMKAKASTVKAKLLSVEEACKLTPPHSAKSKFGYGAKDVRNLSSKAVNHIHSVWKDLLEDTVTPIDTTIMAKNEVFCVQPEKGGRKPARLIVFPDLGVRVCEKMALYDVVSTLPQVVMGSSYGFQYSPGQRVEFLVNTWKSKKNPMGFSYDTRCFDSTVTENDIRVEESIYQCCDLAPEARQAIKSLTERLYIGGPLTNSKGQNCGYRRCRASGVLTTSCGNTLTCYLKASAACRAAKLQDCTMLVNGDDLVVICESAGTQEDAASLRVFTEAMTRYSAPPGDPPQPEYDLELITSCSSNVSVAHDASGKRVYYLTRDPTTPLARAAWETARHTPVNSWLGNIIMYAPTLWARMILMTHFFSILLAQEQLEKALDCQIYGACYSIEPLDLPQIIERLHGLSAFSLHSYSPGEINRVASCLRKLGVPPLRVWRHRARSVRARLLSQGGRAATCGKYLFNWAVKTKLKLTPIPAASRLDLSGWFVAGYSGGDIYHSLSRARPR
Method in brief: as §1

[5] = tested on: HCV 1a-H77 subgenomic replicon; test: microbe, parasite or virus in culture; assay type: cell-based, HCV genotype 1a; details: Hepatitis C virus, stable replicon
[6] = tested on: HCV 1b-BB7 subgenomic replicon; test: microbe, parasite or virus in culture; assay type: cell-based, HCV genotype 1b; details: Hepatitis C virus, stable replicon
[7] = tested on: chimeric replicon with 2a-J6CF-derived NS5B; test: microbe, parasite or virus in culture; assay type: cell-based, HCV genotype 2a; details: Hepatitis C virus, read-out: 2a chimera 5% FBS EC50
[8] = tested on: chimeric replicon with genotype 2b NS5B; test: microbe, parasite or virus in culture; assay type: cell-based, HCV genotype 2b; details: Hepatitis C virus, read-out: 2b chimera 5% FBS EC50
[9] = tested on: chimeric replicon with genotype 3a NS5B; test: microbe, parasite or virus in culture; assay type: cell-based, HCV genotype 3a; details: Hepatitis C virus, read-out: 3a chimera 5% FBS EC50
[10] = tested on: chimeric replicon with genotype 4a NS5B; test: microbe, parasite or virus in culture; assay type: cell-based, HCV genotype 4a; details: Hepatitis C virus, read-out: 4a chimera 5% FBS EC50
[11] = tested on: HCV 1a-H77 transient subgenomic replicon in Huh-7 derived cell line; test: microbe, parasite or virus in culture; assay type: cell-based, HCV genotype 1a; details: Hepatitis C virus, Huh-7; transient replicon, 5% FBS; read-out: Transient Replicon 1a H77 5% FBS EC50
Method in brief: (§2)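 Subgenomic replicon RNA (no Neo gene) electroporated into Huh-7-derived cells, plated at 5×10^3 cells/well; a 4 h plate gauged transfection efficiency. Cells exposed to 3-fold compound dilutions (0.5% DMSO) for 4 days at 37° C, then lysed for luciferase readout; EC50 calculated.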

[12] = tested on: HCV 1a-H77-C316Y transient subgenomic replicon in Huh-7 derived cell line; test: microbe, parasite or virus in culture; assay type: cell-based, HCV genotype 1a; details: for EC50: Hepatitis C virus, Huh-7, read-out: Transient Replicon 1a H77-C316Y 5% FBS EC50; for Transient Replicon Fold Resistance C316Y/1a: ratio of transient replicon EC50s, C316Y / 1a H77
Method in brief: as §2

[13] = 5% FBS, absence of human plasma, read-out: Stable Replicon 1a H77 5% FBS EC50
[14] = strain 1a H77, 5% FBS + 40% human plasma, read-out: 1a H77 5% FBS + 40% Human Plasma EC50
[15] = strain 1a H77, 5% FBS, no human plasma, read-out: 1a H77 5% FBS EC50
[16] = strain 1a H77, 5% FBS, read-out: 1a H77 5% FBS EC50
[17] = strain 1b BB7, 5% FBS + 40% human plasma, read-out: 1b BB7 5% FBS + 40% Human Plasma EC50
[18] = strain 1b BB7, 5% FBS, no human plasma, read-out: 1b BB7 5% FBS EC50
[19] = strain 1b BB7, 5% FBS, read-out: 1b BB7 5% FBS EC50

T1 sequence (P27958 2421-2990): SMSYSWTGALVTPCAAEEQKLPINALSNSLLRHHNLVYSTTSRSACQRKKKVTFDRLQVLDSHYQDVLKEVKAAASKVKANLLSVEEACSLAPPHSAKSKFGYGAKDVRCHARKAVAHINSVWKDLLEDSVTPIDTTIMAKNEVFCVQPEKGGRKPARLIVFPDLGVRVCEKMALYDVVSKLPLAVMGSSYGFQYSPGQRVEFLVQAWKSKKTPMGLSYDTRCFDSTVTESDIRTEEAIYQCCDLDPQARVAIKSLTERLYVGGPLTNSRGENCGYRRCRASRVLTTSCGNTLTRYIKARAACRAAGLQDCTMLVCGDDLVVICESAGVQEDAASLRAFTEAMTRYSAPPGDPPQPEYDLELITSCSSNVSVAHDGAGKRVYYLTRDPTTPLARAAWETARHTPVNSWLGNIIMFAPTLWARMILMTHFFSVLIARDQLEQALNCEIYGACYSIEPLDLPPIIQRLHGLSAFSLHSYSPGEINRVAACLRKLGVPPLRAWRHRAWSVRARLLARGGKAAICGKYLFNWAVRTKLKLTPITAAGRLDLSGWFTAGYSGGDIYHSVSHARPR

## CS(=O)(=O)N(CCCS(=O)(=O)c1ccccc1)c1cc2oc(-c3ccc(F)cc3)c(-c3ncc[nH]3)c2cc1C1CC1 [Example 90, N-[5-cyclopropyl-2-(4-fluorophenyl)-3-(1H-imidazol-2-yl)-1-benzofuran-6-yl]-N-[3-(phenylsulfonyl)propyl]methanesulfonamide]
[1]
  IC50: 3.5 nM
[2]
  IC50: 42 nM
[3]
  C316Y/1a Fold Resistance: 12 fold
[4]
  IC50: 10 nM
[5]; [13]
  EC50: 10.2 nM
[5]; [14]
  EC50: 93 nM
[5]; [15]
  EC50: 10.2 nM
[5]; [16]
  EC50: 10.2 nM
[6]; [17]
  EC50: 48 nM
[6]; [18]
  EC50: 6 nM
[6]; [19]
  EC50: 6 nM
[7]
  EC50: 47.5 nM
[8]
  EC50: 68 nM
[9]
  EC50: 12.8 nM
[10]
  EC50: 27.5 nM
[11]
  EC50: 2.7 nM
[12]
  EC50: 65.8 nM
  Transient Replicon Fold Resistance C316Y/1a: 24 fold

## CS(=O)(=O)N(CCCCC(N)=O)c1cc2oc(-c3ccc(F)cc3)c(-c3ncc[nH]3)c2cc1C1CC1 [Example 91, 5-{[5-cyclopropyl-2-(4-fluorophenyl)-3-(1H-imidazol-2-yl)-1-benzofuran-6-yl](methylsulfonyl)amino}pentanamide]
[1]
  IC50: 5.3 nM
[2]
  IC50: 80 nM
[3]
  C316Y/1a Fold Resistance: 15 fold
[4]
  IC50: 26 nM
[5]; [13]
  EC50: 6.3 nM
[5]; [14]
  EC50: 32 nM
[5]; [15]
  EC50: 6.3 nM
[5]; [16]
  EC50: 6.34 nM
[6]; [17]
  EC50: 34 nM
[6]; [18]
  EC50: 4.9 nM
[6]; [19]
  EC50: 4.9 nM
[7]
  EC50: 85.8 nM
[8]
  EC50: 99.4 nM
[9]
  EC50: 8 nM
[10]
  EC50: 88.8 nM
[11]
  EC50: 5.6 nM
[12]
  EC50: 121 nM
  Transient Replicon Fold Resistance C316Y/1a: 22 fold

## CS(=O)(=O)N(CCCCC(=O)O)c1cc2oc(-c3ccc(F)cc3)c(-c3ncc[nH]3)c2cc1C1CC1 [Example 92, 5-{[5-cyclopropyl-2-(4-fluorophenyl)-3-(1H-imidazol-2-yl)-1-benzofuran-6-yl](methylsulfonyl)amino}pentanoic acid]
[1]
  IC50: 4.9 nM
[2]
  IC50: 43 nM
[3]
  C316Y/1a Fold Resistance: 9 fold
[4]
  IC50: 6 nM
[5]; [13]
  EC50: 21.4 nM
[5]; [14]
  EC50: 175 nM
[5]; [15]
  EC50: 21.4 nM
[5]; [16]
  EC50: 21.4 nM
[6]; [17]
  EC50: 142 nM
[6]; [18]
  EC50: 25.9 nM
[6]; [19]
  EC50: 25.9 nM
[7]
  EC50: 409 nM
[8]
  EC50: 352 nM
[9]
  EC50: 43 nM
[10]
  EC50: 283 nM
[11]
  EC50: 19.4 nM
[12]
  EC50: 480 nM
  Transient Replicon Fold Resistance C316Y/1a: 25 fold

## CCS(=O)(=O)CCN(c1cc2oc(-c3ccc(F)cc3)c(-c3ncc[nH]3)c2cc1C1CC1)S(C)(=O)=O [Example 96, N-[5-cyclopropyl-2-(4-fluorophenyl)-3-(1H-imidazol-2-yl)-1-benzofuran-6-yl]-N-[2-(ethylsulfonyl)ethyl]methanesulfonamide]
[1]
  IC50: 8.9 nM
[2]
  IC50: 58 nM
[3]
  C316Y/1a Fold Resistance: 6 fold
[4]
  IC50: 34 nM
[5]; [13]
  EC50: 6.3 nM
[5]; [14]
  EC50: 58 nM
[5]; [15]
  EC50: 6.2 nM
[5]; [16]
  EC50: 6.3 nM
[6]; [17]
  EC50: 37 nM
[6]; [18]
  EC50: 4 nM
[6]; [19]
  EC50: 4 nM
[7]
  EC50: 43.7 nM
[8]
  EC50: 126 nM
[9]
  EC50: 5.9 nM
[10]
  EC50: 41.9 nM
[11]
  EC50: 1.1 nM
[12]
  EC50: 80.6 nM
  Transient Replicon Fold Resistance C316Y/1a: 73 fold

## CC(C)(O)CCCN(c1cc2oc(-c3ccc(F)cc3)c(-c3ncc[nH]3)c2cc1C1CC1)S(C)(=O)=O [Example 99, N-[5-cyclopropyl-2-(4-fluorophenyl)-3-(1H-imidazol-2-yl)-1-benzofuran-6-yl]-N-(4-hydroxy-4-methylpentyl)methanesulfonamide]
[1]
  IC50: 4.5 nM
[2]
  IC50: 58 nM
[3]
  C316Y/1a Fold Resistance: 13 fold
[4]
  IC50: 11 nM
[5]; [13]
  EC50: 7.7 nM
[5]; [14]
  EC50: 126 nM
[5]; [15]
  EC50: 7.7 nM
[5]; [16]
  EC50: 7.7 nM
[6]; [17]
  EC50: 105 nM
[6]; [18]
  EC50: 5.4 nM
[6]; [19]
  EC50: 5.4 nM
[7]
  EC50: 29.6 nM
[8]
  EC50: 17.3 nM
[9]
  EC50: 3.8 nM
[10]
  EC50: 31.4 nM
[11]
  EC50: 7.6 nM
[12]
  EC50: 85.4 nM
  Transient Replicon Fold Resistance C316Y/1a: 11 fold

## CC(O)CCCN(c1cc2oc(-c3ccc(F)cc3)c(-c3ncc[nH]3)c2cc1C1CC1)S(C)(=O)=O (stereo not drawn) [Example 100, N-[5-cyclopropyl-2-(4-fluorophenyl)-3-(1H-imidazol-2-yl)-1-benzofuran-6-yl]-N-(4-hydroxypentyl)methanesulfonamide]
[1]
  IC50: 3.5 nM
[2]
  IC50: 53 nM
[3]
  C316Y/1a Fold Resistance: 15 fold
[4]
  IC50: 8 nM
[5]; [13]
  EC50: 6 nM
[5]; [14]
  EC50: 88 nM
[5]; [15]
  EC50: 6 nM
[5]; [16]
  EC50: 6 nM
[6]; [17]
  EC50: 57 nM
[6]; [18]
  EC50: 3.4 nM
[6]; [19]
  EC50: 3.4 nM
[7]
  EC50: 19.8 nM
[8]
  EC50: 16.3 nM
[9]
  EC50: 3.1 nM
[10]
  EC50: 21.6 nM
[11]
  EC50: 4.2 nM
[12]
  EC50: 89.1 nM
  Transient Replicon Fold Resistance C316Y/1a: 21 fold

## CS(=O)(=O)CCCN(c1cc2oc(-c3ccc(F)cc3)c(-c3ncc[nH]3)c2cc1C1CC1)S(C)(=O)=O [Example 101, N-[5-cyclopropyl-2-(4-fluorophenyl)-3-(1H-imidazol-2-yl)-1-benzofuran-6-yl]-N-[3-(methylsulfonyl)propyl]methanesulfonamide]
[1]
  IC50: 5 nM
[2]
  IC50: 46 nM
[3]
  C316Y/1a Fold Resistance: 9 fold
[4]
  IC50: 11 nM
[5]; [13]
  EC50: 4.1 nM
[5]; [14]
  EC50: 110 nM
[5]; [15]
  EC50: 4.1 nM
[5]; [16]
  EC50: 4.12 nM
[6]; [17]
  EC50: 75 nM
[6]; [18]
  EC50: 5.9 nM
[6]; [19]
  EC50: 5.9 nM
[7]
  EC50: 33 nM
[8]
  EC50: 33.4 nM
[9]
  EC50: 4.3 nM
[10]
  EC50: 56.4 nM
[11]
  EC50: 3.7 nM
[12]
  EC50: 102 nM
  Transient Replicon Fold Resistance C316Y/1a: 28 fold

## CS(=O)(=O)N(CCCC(N)=O)c1cc2oc(-c3ccc(F)cc3)c(-c3ncc[nH]3)c2cc1C1CC1 [Example 108, 4-{[5-cyclopropyl-2-(4-fluorophenyl)-3-(1H-imidazol-2-yl)-1-benzofuran-6-yl](methylsulfonyl)amino}butanamide]
[1]
  IC50: 3.5 nM
[2]
  IC50: 60 nM
[3]
  C316Y/1a Fold Resistance: 17 fold
[4]
  IC50: 28 nM
[5]; [13]
  EC50: 15.3 nM
[5]; [14]
  EC50: 49 nM
[5]; [15]
  EC50: 15.3 nM
[5]; [16]
  EC50: 15.3 nM
[6]; [17]
  EC50: 57 nM
[6]; [18]
  EC50: 10.1 nM
[6]; [19]
  EC50: 10.1 nM
[7]
  EC50: 156 nM
[8]
  EC50: 187 nM
[9]
  EC50: 11 nM
[10]
  EC50: 104 nM
[11]
  EC50: 7.9 nM
[12]
  EC50: 203 nM
  Transient Replicon Fold Resistance C316Y/1a: 26 fold

## CS(=O)(=O)N(CCCN1CCS(=O)(=O)CC1)c1cc2oc(-c3ccc(F)cc3)c(C3=NOCCN3)c2cc1C1CC1 [Example 114, N-[5-cyclopropyl-3-(5,6-dihydro-4H-1,2,4-oxadiazin-3-yl)-2-(4-fluorophenyl)-1-benzofuran-6-yl]-N-[3-(1,1-dioxidothiomorpholin-4-yl)propyl]methanesulfonamide]
[1]
  IC50: 7 nM
[2]
  IC50: 70 nM
[3]
  C316Y/1a Fold Resistance: 10 fold
[4]
  IC50: 43 nM
[5]; [13]
  EC50: 27.1 nM
[5]; [14]
  EC50: 406 nM
[5]; [15]
  EC50: 27.1 nM
[5]; [16]
  EC50: 27.1 nM
[6]; [17]
  EC50: 377 nM
[6]; [18]
  EC50: 33 nM
[6]; [19]
  EC50: 33 nM
[7]
  EC50: 299 nM
[8]
  EC50: 331 nM
[9]
  EC50: 56.2 nM
[10]
  EC50: 307 nM
[11]
  EC50: 21.8 nM
[12]
  EC50: 238 nM
  Transient Replicon Fold Resistance C316Y/1a: 11 fold
